# Experimental data taken from publication PMC6272684, “Synthesis, Antiproliferative and Antifungal Activities of 1,2,3-Triazole-Substituted Carnosic Acid and Carnosol Derivatives” (Molecules, 2015).
# Like-named read-outs stand apart in the source and are kept apart here.
# Columns and labels:
# C. neoformans ATCC 32264 = assay: Antifungal broth microdilution (CLSI M27-A3), growth inhibition; format: cell-based, Cryptococcus neoformans; settings: for MIC50 (minimum concentration to inhibit 50% of fungal growth), C. neoformans: C. neoformans ATCC 32264
# How it was run: (§1)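 Yeast inocula (1–5 × 10^3 CFU/mL) were tested by CLSI M27-A3 broth microdilution in RPMI-1640 at 250–3.9 μg∙mL^−1 (DMSO ≤1%) for 48 h at 30 °C in the dark. Growth was read at OD405, and % inhibition was calculated against growth and sterility controls in triplicate. MIC100 is total inhibition; MIC50 is 50% inhibition.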
# [1] = tested on: lung cancer (SK-MES-1) cells; assay: Antiproliferative assay (MTT reduction, 3 days); format: cell-based, human; settings: >100 µM considered inactive, read-out: IC50 ± SD, SK-MES-1
# Procedure: (§2) The antiproliferative activity towards the following human cell lines was determined: normal lung fibroblasts (MRC-5), gastric epithelial adenocarcinoma (AGS), lung cancer (SK-MES-1) and bladder carcinoma (J82) cells.
# (§3) All human cell lines used in this work were purchased from the American Type Culture Collection (ATCC, Manasas, VA, USA). […] All media were supplemented with 10% heat-inactivated FBS, 100 IU∙mL^−1 penicillin and 100 µg∙mL^−1 streptomycin. Cells were grown in a humidified incubator with 5% CO2 in air at 37 °C. For the antiproliferative assay, cells were plated at a density of 5 × 10^4 cells∙mL^−1. Cells were seeded in 96-well plates (100 µL∙well^−1). One day after seeding, cells were treated with medium containing the compounds at concentrations ranging from 0 up to 100 µM during 3 days. The compounds were dissolved in DMSO (1% final concentration) and complete medium. Untreated cells (medium containing 1% DMSO) were used as 100% viability controls. […] Each concentration was tested in sextuplicate and experiments were repeated 2 times. Cell viability was determined by means of the MTT reduction assay at the end of the incubation with the products. […] The software used was OriginPro 8.1 [30].
# [2] = tested on: normal lung fibroblasts (MRC-5); assay: Antiproliferative assay (MTT reduction, 3 days); format: cell-based, human; settings: MRC-5 normal fibroblasts, >100 µM considered inactive; for IC50: read-out: IC50 ± SD, MRC-5
# Procedure: as §2, §3
# C. albicans ATCC 10231 = assay: Antifungal broth microdilution (CLSI M27-A3), growth inhibition; format: cell-based, Candida albicans; settings: for MIC50 (minimum concentration to inhibit 50% of fungal growth), C. albicans: C. albicans ATCC 10231
# How it was run: as §1
# [3] = tested on: bladder carcinoma (J82) cells; assay: Antiproliferative assay (MTT reduction, 3 days); format: cell-based, human; settings: read-out: IC50 ± SD, J82
# Procedure: (§4) The antiproliferative activity towards the following human cell lines was determined: normal lung fibroblasts (MRC-5), gastric epithelial adenocarcinoma (AGS), lung cancer (SK-MES-1) and bladder carcinoma (J82) cells. […] When comparing the pairs 3–4, 5–6 and 7–8 differing in one CH2 unit in the linker, the activity decreased with linker length.
# (§5) All human cell lines used in this work were purchased from the American Type Culture Collection (ATCC, Manasas, VA, USA). Normal lung MRC-5 fibroblasts (CCL-171), SK-MES-1 lung cancer cells (HTB-58) and J82 bladder carcinoma cells (HTB-1) were grown as monolayers in minimum essential Eagle medium (MEM) with Earles’s salts, 2 mM L-glutamine and 1.5 g∙L^−1 sodium bicarbonate. Gastric adenocarcinoma AGS cells (CRL-1739) were grown as monolayers in Ham F-12 medium containing 1 mM L-glutamine and 1.5 g∙L^−1 sodium bicarbonate. All media were supplemented with 10% heat-inactivated FBS, 100 IU∙mL^−1 penicillin and 100 µg∙mL^−1 streptomycin. Cells were grown in a humidified incubator with 5% CO2 in air at 37 °C. For the antiproliferative assay, cells were plated at a density of 5 × 10^4 cells∙mL^−1. Cells were seeded in 96-well plates (100 µL∙well^−1). One day after seeding, cells were treated with medium containing the compounds at concentrations ranging from 0 up to 100 µM during 3 days. The compounds were dissolved in DMSO (1% final concentration) and complete medium. Untreated cells (medium containing 1% DMSO) were used as 100% viability controls. […] Each concentration was tested in sextuplicate and experiments were repeated 2 times. Cell viability was determined by means of the MTT reduction assay at the end of the incubation with the products. The results were transformed to percentage of controls and the IC50 value was obtained adjusting the dose-response curve to a sigmoidal model. The software used was OriginPro 8.1 [30].
# [4] = tested on: gastric epithelial adenocarcinoma (AGS) cells; assay: Antiproliferative assay (MTT reduction, 3 days); format: cell-based, human; settings: >100 µM considered inactive; for IC50: read-out: IC50 ± SD, AGS
# Procedure: as §4, §5
# [5] = J82 cells, 3 days, MTT, >100 µM considered inactive
SMILES,"Inhibition percentage against C. neoformans ATCC 32264 (C. neoformans ATCC 32264; 3.9 μg∙mL^−1, 48 h)","Inhibition percentage against C. neoformans ATCC 32264 (C. neoformans ATCC 32264; 7.8 μg∙mL^−1, 48 h)","Inhibition percentage against C. neoformans ATCC 32264 (C. neoformans ATCC 32264; 15.6 μg∙mL^−1, 48 h)","Inhibition percentage against C. neoformans ATCC 32264 (C. neoformans ATCC 32264; 31.2 μg∙mL^−1, 48 h)","Inhibition percentage against C. neoformans ATCC 32264 (C. neoformans ATCC 32264; 62.5 μg∙mL^−1, 48 h)","Inhibition percentage against C. neoformans ATCC 32264 (C. neoformans ATCC 32264; 125 μg∙mL^−1, 48 h)","Inhibition percentage against C. neoformans ATCC 32264 (C. neoformans ATCC 32264; 250 μg∙mL^−1, 48 h)","MIC50 (minimum concentration to inhibit 50% of fungal growth), C. neoformans (C. neoformans ATCC 32264)",IC50 [1],IC50 [2],"Inhibition percentage against C. albicans ATCC 10231 (C. albicans ATCC 10231; 3.9 μg∙mL^−1, 48 h)","Inhibition percentage against C. albicans ATCC 10231 (C. albicans ATCC 10231; 7.8 μg∙mL^−1, 48 h)","Inhibition percentage against C. albicans ATCC 10231 (C. albicans ATCC 10231; 15.6 μg∙mL^−1, 48 h)","Inhibition percentage against C. albicans ATCC 10231 (C. albicans ATCC 10231; 62.5 μg∙mL^−1, 48 h)","Inhibition percentage against C. albicans ATCC 10231 (C. albicans ATCC 10231; 125 μg∙mL^−1, 48 h)","Inhibition percentage against C. albicans ATCC 10231 (C. albicans ATCC 10231; 250 μg∙mL^−1, 48 h)","Inhibition percentage against C. albicans ATCC 10231 (C. albicans ATCC 10231; 31. μg∙mL^−1, 48 h)","MIC50 (minimum concentration to inhibit 50% of fungal growth), C. albicans (C. albicans ATCC 10231)","IC50 [3, 5]",IC50 [4],also measured
"CC(C)c1cc2c3c(c1OC(=O)CCc1cn(Cc4ccc([N+](=O)[O-])cc4)nn1)OC(=O)C31CCCC(C)(C)C1CC2 (stereo not drawn) [Compound 7, 12-O-(3-(1-(4-nitrobenzyl)-1H-1,2,3-triazol-4-yl)-propanoyloxy)-11,20-epoxyabieta-8,11,13-trien-20-one]",0.0%,0.0%,0.0%,0.0%,0.0%,20.0 ± 1.1%,28.2 ± 2.7%,>250 µg/mL,> 100 µM,60.6 ± 3.6 µM,0.0%,0.9 ± 0.2%,2.1 ± 0.1%,2.5 ± 0.5%,10.5 ± 3.0%,15.5 ± 1.1%,2.2 ± 0.7%,>250 µg/mL,> 100 µM,64.3 ± 4.5 µM,
"CC(C)c1cc2c3c(c1OC(=O)CCCc1cn(Cc4ccccc4)nn1)OC(=O)C31CCCC(C)(C)C1CC2 (stereo not drawn) [Compound 4, 12-O-(4-(1-benzyl-1H-1,2,3-triazol-4-yl)-butanoyloxy)-11,20-epoxyabieta-8,11,13-trien-20-one]",0.0%,0.0%,2.3 ± 1.0%,8.5 ± 1.0%,9.8 ± 1.1%,17.8 ± 1.4%,53.4 ± 2.1%,250 µg/mL,> 100 µM,> 100 µM,3.7 ± 0.4%,4.1 ± 1.7%,9.5 ± 1.3%,16.4 ± 2.3%,28.2 ± 2.1%,51.6 ± 0.1%,10.2 ± 1.2%,250 µg/mL,> 100 µM,> 100 µM,"IC50 ± SD, MRC-5 [2]: inactive; IC50 ± SD, AGS [4]: inactive"
"CC(C)c1cc2c(c(OC(=O)CCc3cn(Cc4ccc([N+](=O)[O-])cc4)nn3)c1OC(=O)CCc1cn(Cc3ccc([N+](=O)[O-])cc3)nn1)C13CCCC(C)(C)C1CC2OC3=O (stereo not drawn) [Compound 23, (7β)-11,12-O-(3-(1-(4-nitrobenzyl)-1H-1,2,3-triazol-4-yl)-propanoyloxy)-7,20-epoxyabieta-8,11,13-trien-20-one]",6.0 ± 0.1%,11.5 ± 1.5%,16.2 ± 0.2%,18.1 ± 0.4%,32.6 ± 0.8%,37.7 ± 0.7%,,250 µg/mL,,,0.0%,1.6 ± 0.8%,3.3 ± 0.6%,6.7 ± 1.6%,17.6 ± 1.4%,25.5 ± 2.5%,6.0 ± 0.5%,>250 µg/mL,,99.4 µM,
"COC(=O)C12CCCC(C)(C)C1CCc1cc(C(C)C)c(OC(=O)CCc3cn(Cc4ccccc4)nn3)c(OC(=O)CCc3cn(Cc4ccccc4)nn3)c12 (stereo not drawn) [Compound 11, Methyl(11,12-O-(3-(1-benzyl-1H-1,2,3-triazol-4-yl)-propanoyloxy)-abieta-8,11,13-triene)-20-oate]",0.0%,2.7 ± 0.9%,13.3 ± 2.0%,14.2 ± 1.3%,19.4 ± 2.1%,38.3 ± 2.9%,57.2 ± 2.4%,250 µg/mL,,,1.8 ± 0.1%,1.9 ± 0.5%,3.5 ± 0.7%,11.8 ± 0.3%,23.3 ± 2.1%,45.7 ± 3.0%,5.5 ± 1.7%,>250 µg/mL,,89.4 µM,Antifungal activity against C. albicans (in words) (C. albicans ATCC 10231; at the assayed concentrations (250–3.9 μg∙mL^−1)): weak effect
"COc1cc([C@@H]2c3cc4c(cc3[C@@H](O[C@@H]3O[C@@H]5CO[C@@H](C)O[C@H]5[C@H](O)[C@H]3O)[C@H]3COC(=O)[C@H]23)OCO4)cc(OC)c1O [Etoposide, reference compound]",,,,,,,,,,,,,,,,,,,,,"IC50 ([3]; Homo sapiens, J82, 72 h): 3.49 ± 0.16 µM; IC50 ([4]; Homo sapiens, 72 h): 0.58 ± 0.02 µM"
